Test results from patent US20250170155A1, “NUCLEOSIDE DERIVATIVES AND PRODRUGS THEREOF HAVING VIRAL GROWTH INHIBITORY ACTION” (Shionogi & Co., Ltd., priority 2021, published 2025).
Where two headings read alike, the source gives them in different places.

Columns and labels:
Assay type in all cases: cell-based
[1] = system: SARS-CoV-2 (hCoV-19/Japan/TY/WK-521/2020 strain); test: CPE suppression effect confirmation test (SARS-CoV-2, Vero E6/TMPRSS2 cells), antiviral activity; details: for EC50: read-out: SARS-CoV-2 EC50 (50% CPE inhibitory concentration), 3 days culture
Vero E6/TMPRSS2 cells = test: Cytotoxic activity evaluation, Vero E6/TMPRSS2 cells; details: read-out: SARS-CoV-2 test CC50 (50% cell proliferation inhibitory concentration), no virus, 3 days
Description: (§1) <Operation Procedure (Cytotoxic Activity Evaluation)>
(§2) A 3- to 5-fold serial dilution series of test substances was prepared in DMSO, diluted with 2% FBS/MEM so that the concentration of DMSO was 2%, and dispensed into a 96 well plate (50 μL/well, DMSO final concentration 0.5%). • Dilution and dispensing of cells
(§3) The cells prepared to an appropriate number were seeded at 100 μL/well to the plate into which the test substance was dispensed. Thereafter, the cells were cultured in a CO2 incubator at 37° C. for 3 days. • Dispensing of CellTiter-Glo (registered trademark) 2.0 Reagent
(§4) Same as those described in the section for evaluation of antiviral activity • Measurement of luminescence intensity
(§5) Same as those described in the section for evaluation of antiviral activity
(§6) Excel, TIBCO Spotfire, or a program having equivalent calculation processing capability based on the following calculation formula.

[2] = system: SARS-CoV-2 (hCoV-19/Japan/TY/WK 521/2020 strain); test: microbe, parasite or virus in culture; details: HEK293T/ACE2-TMPRSS2 cells; for EC50: Severe acute respiratory syndrome coronavirus 2, HEK-293T, 72 h, read-out: SARS-CoV-2 EC50 (50% CPE inhibitory concentration), 293T-AT, 3 days culture
[3] = Cytotoxic activity evaluation, Vero E6/TMPRSS2 cells; details: African green monkey, no virus
Description: as §1, §2, §3, §4, §5, §6

[4] = Cytotoxic activity evaluation, HEK293T/ACE2-TMPRSS2 cells; details: human, no virus
Description: as §1
A 3- to 5-fold serial dilution series of test substances was prepared in DMSO, diluted with 2% FIBS/MEM so that the concentration of DMSO was 2%, and dispensed into a 96 or 384/well well plate (50 μL/well or 40 μL/well, DMSO final concentration 0.5%). • Dilution and dispensing of cells
The cells prepared to an appropriate number were seeded at 100 μL/well or 40 μL/well to the plate into which the test substance was dispensed. Thereafter, the cells were cultured in a CO2 incubator at 37° C. for 3 days. • Dispensing of CellTiter-Glo (registered trademark) 2.0 Reagent
as §4, §5
(§7) [formula] [formula] • Calculation of Selectivity Index (SI)

RPMI 2650 cells = test: Cytotoxic activity evaluation, RPMI 2650 cells; details: read-out: Influenza test CC50 (50% cell proliferation inhibitory concentration), no virus, 3 to 6 days
Description: as §1
(§8) On the day before the compound treatment, cells prepared to an appropriate number were seeded in a 96 well plate at 100 μL/well. Thereafter, the cells were cultured in a CO2 incubator at 37° C. • Preparation of 2 μg/mL trypsin/0.5% BSA/MEM
(§9) Same as those described in the section for evaluation of antiviral activity • Dilution and dispensing of test substance
(§10) A 3- to 5-fold serial dilution series of test substances was prepared in DMSO in advance, and diluted with 2 μg/mL trypsin/0.5% BSA/MEM so that the final concentration of DMSO was 0.5% (100 to 200 μL/well). The cells were washed with MEM, and then cultured in a test substance-added medium for 3 to 6 days. Double measurement was performed for each drug. • Dispensing of resazurin solution
(§11) Same as those described in the section for evaluation of antiviral activity • Measurement of fluorescence intensity
as §5, §7

[5] = system: influenza virus (A/WSN/33 (H1N1) strain); test: CPE suppression effect confirmation test (influenza virus, RPMI 2650 cells), antiviral activity; details: for EC50: read-out: Influenza EC50 (50% CPE inhibitory concentration), A/WSN/33 (H1N1), 3 to 6 days
[6] = Cytotoxic activity evaluation, RPMI 2650 cells; details: human, no virus, 3 to 6 days
Description: as §1, §8, §9, §10, §11, §5, §7

[7] = Severe acute respiratory syndrome coronavirus 2, VeroE6/TMPRSS2, 72 h

N#C[C@@]1(c2c[nH]c3c(N)ncnc23)O[C@H](CO)[C@@H](O)[C@H]1O [Compound I-048]
EC50 [1]: 40.9 µM
CC50 (Vero E6/TMPRSS2 cells): > 500 µM

NC(=O)c1cc([C@@H]2N[C@H](CO)[C@@H](O)[C@H]2O)n2ncnc(N)c12 [Compound I-010]
SARS-CoV-2 SI (Selectivity Index) [1]: 2488
EC50 [1, 7]: 0.18 µM
SARS-CoV-2 SI (Selectivity Index), 293T-AT [2]: 1050
EC50 [2]: 0.0395 µM
CC50 at 3 days [3]: 448 µM

Cc1cnc(-c2cc([C@@H]3N[C@H](CO)[C@@H](O)[C@H]3O)n3ncnc(N)c23)o1.Cl [Compound I-090]
CC50 at 3 days [4]: > 500 µM
SARS-CoV-2 SI (Selectivity Index), 293T-AT [2]: >13.1
EC50 [2]: 38.1 µM

OC[C@H]1N[C@@H](c2ccc3c(NO)ncnn23)[C@H](O)[C@@H]1O [Compound I-020]
CC50 (RPMI 2650 cells): > 500 µM
EC50 [5]: 20.2 µM

Cn1ncc(-c2cc([C@@H]3N[C@H](CO)[C@@H](O)[C@H]3O)n3ncnc(N)c23)n1 [Compound I-086]
CC50 at 3 days [4]: 225 µM
SARS-CoV-2 SI (Selectivity Index), 293T-AT [2]: 19.4
EC50 [2]: 11.6 µM

CC(O)c1cc([C@@H]2N[C@H](CO)[C@@H](O)[C@H]2O)c2ncnc(N)n12 (stereo partly drawn) [Compound I-038]
CC50 (RPMI 2650 cells): > 500 µM
EC50 [5]: 4.41 µM

Nc1ncnn2c([C@@H]3N[C@H](CO)[C@@H](O)[C@H]3O)cc(O)c12 [Compound I-022]
CC50 (RPMI 2650 cells): > 500 µM
EC50 [5]: 105 µM
EC50 [1]: 1.03 µM
CC50 (Vero E6/TMPRSS2 cells): 129 µM

CC(C)(C)OC(=O)N1[C@H](CO)[C@@H](O)[C@@H](O)[C@@H]1c1cc(N)c2c(N)ncnn12 [Compound I-024]
CC50 (RPMI 2650 cells): 310 µM
EC50 [5]: 47.9 µM
EC50 [1]: 49.3 µM
CC50 (Vero E6/TMPRSS2 cells): 189 µM

CC1(C)O[C@@H]2[C@H](O1)[C@@H](CO)N[C@H]2c1cc(/C=N/O)c2c(N)ncnn12 [Compound I-018]
CC50 (RPMI 2650 cells): > 500 µM
EC50 [5]: 1.06 µM

Cl.Nc1ncnn2c([C@@H]3N[C@H](CO)[C@@H](O)[C@H]3O)cc(-c3ccn(CCO)n3)c12 [Compound I-092]
CC50 at 3 days [4]: > 500 µM
SARS-CoV-2 SI (Selectivity Index), 293T-AT [2]: >1577
EC50 [2]: 0.317 µM

Cl.Nc1ncnn2c([C@@H]3N[C@H](CO)[C@@H](O)[C@H]3O)cc(-c3nc[nH]n3)c12 [Compound I-037]
CC50 [6]: 6.81 µM
Influenza SI (Selectivity Index) [5]: <1.70
EC50 [5]: > 4 µM
SARS-CoV-2 SI (Selectivity Index) [1]: 8.63
EC50 [1, 7]: 1.97 µM
CC50 at 3 days [3]: 17 µM

N/C(=N\O)c1cc([C@@H]2N[C@H](CO)[C@@H](O)[C@H]2O)n2ncnc(N)c12 [Compound I-016]
EC50 [1]: 1.57 µM
CC50 (Vero E6/TMPRSS2 cells): > 500 µM

Cl.[2H]C([2H])(O)[C@H]1N[C@@H](c2cc(C(N)=O)c3c(N)ncnn23)[C@H](O)[C@@H]1O [Compound I-095]
CC50 at 3 days [4]: 62.9 µM
SARS-CoV-2 SI (Selectivity Index), 293T-AT [2]: 2769
EC50 [2]: 0.0228 µM

Cc1cc(-c2cc([C@@H]3N[C@H](CO)[C@@H](O)[C@H]3O)n3nc(F)nc(N)c23)[nH]n1.Cl [Compound I-084]
CC50 at 3 days [4]: 257 µM
SARS-CoV-2 SI (Selectivity Index), 293T-AT [2]: 48.2
EC50 [2]: 5.33 µM

CCn1cc(-c2cc([C@@H]3N[C@H](CO)[C@@H](O)[C@H]3O)n3ncnc(N)c23)nn1.Cl [Compound I-093]
CC50 at 3 days [4]: > 500 µM
SARS-CoV-2 SI (Selectivity Index), 293T-AT [2]: >2.37
EC50 [2]: 211 µM

Cl.Nc1ncnn2c([C@@H]3N[C@H](CO)[C@@H](O)[C@H]3O)cc(-c3cc(O)ccn3)c12 [Compound I-087]
CC50 at 3 days [4]: 75 µM
SARS-CoV-2 SI (Selectivity Index), 293T-AT [2]: 3.97
EC50 [2]: 18.9 µM

Cc1nc(N)c2c(C(N)=O)cc([C@@H]3N[C@H](CO)[C@@H](O)[C@H]3O)n2n1.Cl [Compound I-089]
CC50 at 3 days [4]: > 500 µM
SARS-CoV-2 SI (Selectivity Index), 293T-AT [2]: >14.2
EC50 [2]: 35.3 µM

Cl.Nc1ncnc2c([C@@H]3N[C@H](CO)[C@@H](O)[C@H]3O)cc(-c3c[nH]nn3)n12 [Compound I-083]
CC50 at 3 days [4]: 45.3 µM
SARS-CoV-2 SI (Selectivity Index), 293T-AT [2]: 8.71
EC50 [2]: 5.2 µM

Cl.Nc1nc(F)nn2c([C@@H]3N[C@H](CO)[C@@H](O)[C@H]3O)cc(-c3c[nH]nn3)c12 [Compound I-082]
CC50 at 3 days [4]: 150 µM
SARS-CoV-2 SI (Selectivity Index), 293T-AT [2]: 37.8
EC50 [2]: 3.97 µM

Cl.Cl.Nc1ncnn2c([C@@H]3N[C@H](CO)[C@@H](O)[C@H]3O)cc(-c3c[nH]cn3)c12 [Compound I-023]
CC50 [6]: 51.8 µM
Influenza SI (Selectivity Index) [5]: 52.7
EC50 [5]: 0.983 µM
SARS-CoV-2 SI (Selectivity Index) [1]: 923
EC50 [1, 7]: 0.17 µM
CC50 at 3 days [3]: 157 µM

Nc1ncnn2c([C@@H]3O[C@](F)(CO)[C@@H](O)C3(F)F)ccc12 [Compound I-008]
CC50 (RPMI 2650 cells): 432 µM
EC50 [5]: 7.01 µM

Cc1c[nH]c(-c2cc([C@@H]3N[C@H](CO)[C@@H](O)[C@H]3O)n3ncnc(N)c23)n1 [Compound I-091]
CC50 at 3 days [4]: > 250 µM
SARS-CoV-2 SI (Selectivity Index), 293T-AT [2]: >2.29
EC50 [2]: 218 µM

Cl.Nc1nc(F)nn2c([C@@H]3N[C@H](CO)[C@@H](O)[C@H]3O)cc(-c3ncc[nH]3)c12 [Compound I-094]
CC50 at 3 days [4]: > 500 µM
SARS-CoV-2 SI (Selectivity Index), 293T-AT [2]: >10.2
EC50 [2]: 49.1 µM

Cn1ccc(-c2cc([C@H]3[C@@H]4OC(C)(C)O[C@@H]4[C@@H](CO)N3C(=O)OC(C)(C)C)n3ncnc(N)c23)n1 [Compound I-030]
CC50 (RPMI 2650 cells): > 500 µM
EC50 [5]: 7.65 µM

CCn1ccc(-c2cc([C@@H]3N[C@H](CO)[C@@H](O)[C@H]3O)n3ncnc(N)c23)n1.Cl [Compound I-081]
CC50 at 3 days [4]: 306 µM
SARS-CoV-2 SI (Selectivity Index), 293T-AT [2]: 222
EC50 [2]: 1.38 µM

Nc1ncnn2c([C@@H]3N[C@H](CO)[C@@H](O)[C@H]3O)cnc12 [Compound I-001]
CC50 [6]: 70.5 µM
Influenza SI (Selectivity Index) [5]: 67.1
EC50 [5]: 1.05 µM
SARS-CoV-2 SI (Selectivity Index) [1]: <1.22
EC50 [1, 7]: > 0.8 µM
CC50 at 3 days [3]: 0.977 µM

Cc1nc(-c2cc([C@@H]3N[C@H](CO)[C@@H](O)[C@H]3O)n3ncnc(N)c23)n[nH]1 [Compound I-088]
CC50 at 3 days [4]: > 500 µM
SARS-CoV-2 SI (Selectivity Index), 293T-AT [2]: >16.4
EC50 [2]: 30.4 µM

Cn1cnc(-c2cc([C@@H]3N[C@H](CO)[C@@H](O)[C@H]3O)n3ncnc(N)c23)c1 [Compound I-039]
SARS-CoV-2 SI (Selectivity Index) [1]: >6.02
EC50 [1, 7]: 83.1 µM
CC50 at 3 days [3]: > 500 µM

Nc1ncnn2c([C@@H]3N[C@H](CO)[C@@H](O)[C@H]3O)cc(-c3c[nH]nn3)c12 [Compound I-053]
SARS-CoV-2 SI (Selectivity Index) [1]: 677
EC50 [1, 7]: 0.465 µM
CC50 at 3 days [3]: 315 µM

CCn1cc(-c2cc([C@@H]3N[C@H](CO)[C@@H](O)[C@H]3O)n3ncnc(N)c23)cn1.Cl [Compound I-044]
SARS-CoV-2 SI (Selectivity Index) [1]: 16.6
EC50 [1, 7]: 22.6 µM
CC50 at 3 days [3]: 444 µM

Nc1ncnn2c([C@@H]3N[C@H](CO)[C@@H](O)[C@H]3O)cc(-c3ncc[nH]3)c12 [Compound I-033]
SARS-CoV-2 SI (Selectivity Index) [1]: >134
EC50 [1, 7]: 3.74 µM
CC50 at 3 days [3]: > 500 µM
